The text below walks through data of patent US8158776B2, “P2Y6 receptor agonists for treating lung diseases” (Inspire Pharmaceuticals, Inc., priority 2005, dated 2012).

Common to all, as to type: cell-based
The target of one test is T1, P2Y2 (Homo sapiens, UniProt P41231).
T1 construct: expressed in transfected cells; host or cells: human astrocytoma 1321N1 cells
Put plainly: Intracellular calcium mobilization (FLIPR, Fluo-3 AM) in 1321N1 cells expressing P2Y2. The conditions noted are these: 1321N1 cells expressing P2Y2, intracellular calcium. The method, then:
(§1) Human astrocytoma (1321N1) cells expressing P2Y1, P2Y2, P2Y4, and P2Y6 were grown to confluency in 96-well plates. Cells were loaded with a solution of Fluo-3 AM (2.5 μM final concentration) in an assay buffer consisting of 10 mM KCl, 118 mM NaCl, 2.5 mM CaCl2, 1 mM MgCl2, 20 mM HEPES, 10 mM glucose, pH 7.4. After a 60-minute incubation with Fluo-3 AM at 25° C., cells were washed and stimulated with serially diluted concentrations of compounds uridine 5′-diphosphate (UDP), P^1, P^3-(diuridine 5′-)triphosphate (UP3U) or P^1-(2′,3′-benzylacetal uridine 5′-)P^3-(uridine 5′-)triphosphate (mono-benzylacetal UP3U). Intracellular calcium levels were monitored in each well simultaneously by measuring the changes in fluorescence intensity using the FLIPR (Molecular Devices Corp., Sunnyvale, Calif.). Values for compounds UDP, UP3U, and mono-benzylacetal UP3U in Table 1 are presented as EC50 values corresponding to the concentration of an agonist that produces 50% of the maximum possible response.

A further test has as its target T2, P2Y4 (Homo sapiens, UniProt P51582).
T2 construct: expressed in transfected cells; host or cells: human astrocytoma 1321N1 cells
The experiment in a line: Intracellular calcium mobilization (FLIPR, Fluo-3 AM) in 1321N1 cells expressing P2Y4. The conditions noted are these: 1321N1 cells expressing P2Y4, intracellular calcium. The method, then: as §1

The target of the next test is T3, P2Y6 (Homo sapiens, UniProt Q15077).
T3 construct: expressed in transfected cells; host or cells: human astrocytoma 1321N1 cells
T3 sequence (Q15077 whole entry, species assumed): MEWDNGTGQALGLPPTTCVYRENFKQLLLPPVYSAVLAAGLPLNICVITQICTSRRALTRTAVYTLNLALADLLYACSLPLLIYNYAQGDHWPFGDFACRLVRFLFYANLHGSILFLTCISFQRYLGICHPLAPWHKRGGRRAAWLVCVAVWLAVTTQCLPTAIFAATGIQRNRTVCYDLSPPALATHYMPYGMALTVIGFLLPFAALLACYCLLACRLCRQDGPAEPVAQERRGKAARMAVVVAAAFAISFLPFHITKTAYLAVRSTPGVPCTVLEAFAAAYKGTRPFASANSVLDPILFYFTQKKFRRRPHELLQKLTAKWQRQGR
Put plainly: Intracellular calcium mobilization (FLIPR, Fluo-3 AM) in 1321N1 cells expressing P2Y6. The conditions noted are these: 1321N1 cells expressing P2Y6, intracellular calcium. The method, then: as §1

The target of a further test is T4, P2Y1 (Homo sapiens, UniProt P47900).
T4 construct: expressed in transfected cells; host or cells: human astrocytoma 1321N1 cells
T4 sequence (P47900 whole entry, species assumed): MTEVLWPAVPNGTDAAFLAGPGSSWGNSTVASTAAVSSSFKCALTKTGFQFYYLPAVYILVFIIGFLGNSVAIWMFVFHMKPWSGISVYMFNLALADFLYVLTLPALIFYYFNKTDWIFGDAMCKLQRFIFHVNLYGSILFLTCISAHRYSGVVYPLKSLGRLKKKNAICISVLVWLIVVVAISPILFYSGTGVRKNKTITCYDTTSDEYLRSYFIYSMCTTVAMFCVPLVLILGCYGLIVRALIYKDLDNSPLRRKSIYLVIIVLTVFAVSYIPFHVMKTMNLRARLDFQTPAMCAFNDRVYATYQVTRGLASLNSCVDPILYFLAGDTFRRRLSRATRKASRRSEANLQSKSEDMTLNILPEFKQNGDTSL
Put plainly: Intracellular calcium mobilization (FLIPR, Fluo-3 AM) in 1321N1 cells expressing P2Y1. The conditions noted are these: 1321N1 cells expressing P2Y1, intracellular calcium. As for the experimental part:
as §1

T2 sequence (P51582 whole entry, species assumed): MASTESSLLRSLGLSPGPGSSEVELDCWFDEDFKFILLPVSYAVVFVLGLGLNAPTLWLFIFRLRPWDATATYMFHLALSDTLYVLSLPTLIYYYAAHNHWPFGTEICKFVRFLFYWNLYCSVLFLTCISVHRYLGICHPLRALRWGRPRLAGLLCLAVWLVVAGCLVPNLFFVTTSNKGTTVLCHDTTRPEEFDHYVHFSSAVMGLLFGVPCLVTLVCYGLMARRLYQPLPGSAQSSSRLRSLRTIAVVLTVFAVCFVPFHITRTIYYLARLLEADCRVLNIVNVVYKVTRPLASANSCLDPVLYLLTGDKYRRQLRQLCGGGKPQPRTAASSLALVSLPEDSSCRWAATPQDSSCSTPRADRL
T1 sequence (P41231 whole entry, species assumed): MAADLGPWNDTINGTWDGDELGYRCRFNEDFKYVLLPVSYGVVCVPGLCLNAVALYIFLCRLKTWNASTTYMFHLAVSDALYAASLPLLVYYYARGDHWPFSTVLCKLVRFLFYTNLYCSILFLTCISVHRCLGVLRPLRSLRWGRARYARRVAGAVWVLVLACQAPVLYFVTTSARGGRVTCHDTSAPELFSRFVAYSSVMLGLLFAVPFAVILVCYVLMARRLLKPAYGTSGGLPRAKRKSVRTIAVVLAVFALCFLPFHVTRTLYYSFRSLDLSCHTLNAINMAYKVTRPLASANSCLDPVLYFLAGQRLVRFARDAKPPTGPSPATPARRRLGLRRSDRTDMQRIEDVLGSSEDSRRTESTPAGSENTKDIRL

Consider `O=c1ccn([C@@H]2O[C@H](COP(=O)(O)OP(=O)(O)O)[C@@H](O)[C@H]2O)c(=O)[nH]1` [UDP, uridine 5′-diphosphate], for which the EC50 on P2Y2 is 4.2 µM; on P2Y4, 9.48 µM; on P2Y6 it was 0.5 µM; at P2Y1, above 100 µM.

Take `O=c1ccn([C@@H]2O[C@H](COP(=O)(O)OP(=O)(O)OP(=O)(O)OC[C@H]3O[C@@H](n4ccc(=O)[nH]c4=O)[C@H](O)[C@@H]3O)[C@@H](O)[C@H]2O)c(=O)[nH]1` [UP3U, P^1, P^3-(diuridine 5′-)triphosphate]: the EC50 is 13 µM at P2Y2, above 100 µM on P2Y4, 0.92 µM at P2Y6 and above 100 µM at P2Y1.

Regarding `O=c1ccn([C@@H]2O[C@H](COP(=O)(O)OP(=O)(O)OP(=O)(O)OC[C@@H]3O[C@H](n4ccc(=O)[nH]c4=O)C4OC(Cc5ccccc5)OC43)C(O)C2O)c(=O)[nH]1` (stereo partly drawn) [mono-benzylacetal UP3U, P^1-(2′,3′-benzylacetaluridine 5′-)P^3-(uridine 5′-)triphosphate], the EC50 at P2Y2 is above 100 µM; on P2Y4, above 100 µM; on P2Y6 it was 0.14 µM; at P2Y1 it was above 100 µM.
